Structures are written as SMILES.

The subject of assay [1] is HeLa cells. Nature of the assay: Cell growth activity assay (MTS), HeLa cell model. In kind it is cell-based, human. Set-up: activity: dose or concentration left out as unconfirmed. As to conditions: Homo sapiens, HeLa, 72 h, read-out: HeLa % growth rate. An excerpt:
(§1) MTS assay is a routine method for cell toxicity detection. The basic principle is based on the capacity of dehydrogenase in the mitochondria of living cells to reduce a novel yellow […] MTS to formazan, so that the amount of living cells is proportional to the amount of formazan product by detecting the absorbance at 490 nm (OD), thereby speculating the amount of living cells according to the OD value, and understanding the capacity of the test compound to inhibit the growth of cells or to kill the cells.
HeLa cell is a human cervical cancer cell line, and belongs to epithelial tumor cell line; HUVEC is a human umbilical vein endothelial cell, and belongs to primary endothelial cell; both types of cells express all subtypes except for JAK3.
The change of JAK kinase activity has no significant influence on other cell types except for the immune cells, and both cell models mentioned above are mainly used to evaluate whether there are any other kinase targets besides JAK kinases or there are nonselective cell toxicities.
In this experiment, a cultured cell model is incubated with the test compounds at different concentrations for a specific duration. The effect of the treatment by the test compound on the growth of cells is detected using MTS assay.
(§2) MTS is performed according to routine procedure in a 96-well plate.
The model cells are inoculated into each well of the 96-well plate at an appropriate concentration (about 5000 cells/well). After 24 h, the test compounds are added at different concentration gradients (the highest final concentration is 40 μM). A solvent control (DMSO) and a negative control are also performed at the same time. Each experiment is repeated for 3 times. The cells are detected after cultured for another 72 h.
After all culture medium is aspirated out of the well, 100 μL fresh medium and 20 μL pre-formulated mixture of MTS and PMS (in a ratio of 20:1) are added to each well. After incubation at 37° C. for 2 h, it is then detected by a microplate reader (490 nm).
The cell growth inhibitory rate and GI50 of the test compound are calculated as above.
Based on the above method, cytological evaluation is performed to the compounds described herein (for the detection of CTLL-2 cell, the concentration of the test compound is 300 nM; […]).

The target in assay [2] is JAK3 (Homo sapiens (Human), UniProt P52333). The experiment in a line: Z'-LYTE enzymatic activity detection, JAK3. As to conditions: test compound 30 nM; for inhibition at 0.03 µM: read-out: JAK3 % inhibitory rate @30 nM. It is filed as biochemical. As for the experimental part: (§3) The basic principle of in vitro enzymatic activity assay is based on the difference between the intensities of fluorescence signals generated at different wavelengths (445 nm and 520 nm) from the phosphorylated substrate and non-phosphorylated substrate, in which the specific fluorescence-labeled substrate is phosphorylated by the kinase. When different test compounds are added, the inhibition of kinase activity is represented as the different degrees of substrate phosphorylation, and thus as the different intensities of fluorescence signal, based on which the inhibitory activity of the compound on the kinase can be calculated. Basic detection principle is illustrated in FIG. 1.
JAK3, sequence (P52333 whole entry): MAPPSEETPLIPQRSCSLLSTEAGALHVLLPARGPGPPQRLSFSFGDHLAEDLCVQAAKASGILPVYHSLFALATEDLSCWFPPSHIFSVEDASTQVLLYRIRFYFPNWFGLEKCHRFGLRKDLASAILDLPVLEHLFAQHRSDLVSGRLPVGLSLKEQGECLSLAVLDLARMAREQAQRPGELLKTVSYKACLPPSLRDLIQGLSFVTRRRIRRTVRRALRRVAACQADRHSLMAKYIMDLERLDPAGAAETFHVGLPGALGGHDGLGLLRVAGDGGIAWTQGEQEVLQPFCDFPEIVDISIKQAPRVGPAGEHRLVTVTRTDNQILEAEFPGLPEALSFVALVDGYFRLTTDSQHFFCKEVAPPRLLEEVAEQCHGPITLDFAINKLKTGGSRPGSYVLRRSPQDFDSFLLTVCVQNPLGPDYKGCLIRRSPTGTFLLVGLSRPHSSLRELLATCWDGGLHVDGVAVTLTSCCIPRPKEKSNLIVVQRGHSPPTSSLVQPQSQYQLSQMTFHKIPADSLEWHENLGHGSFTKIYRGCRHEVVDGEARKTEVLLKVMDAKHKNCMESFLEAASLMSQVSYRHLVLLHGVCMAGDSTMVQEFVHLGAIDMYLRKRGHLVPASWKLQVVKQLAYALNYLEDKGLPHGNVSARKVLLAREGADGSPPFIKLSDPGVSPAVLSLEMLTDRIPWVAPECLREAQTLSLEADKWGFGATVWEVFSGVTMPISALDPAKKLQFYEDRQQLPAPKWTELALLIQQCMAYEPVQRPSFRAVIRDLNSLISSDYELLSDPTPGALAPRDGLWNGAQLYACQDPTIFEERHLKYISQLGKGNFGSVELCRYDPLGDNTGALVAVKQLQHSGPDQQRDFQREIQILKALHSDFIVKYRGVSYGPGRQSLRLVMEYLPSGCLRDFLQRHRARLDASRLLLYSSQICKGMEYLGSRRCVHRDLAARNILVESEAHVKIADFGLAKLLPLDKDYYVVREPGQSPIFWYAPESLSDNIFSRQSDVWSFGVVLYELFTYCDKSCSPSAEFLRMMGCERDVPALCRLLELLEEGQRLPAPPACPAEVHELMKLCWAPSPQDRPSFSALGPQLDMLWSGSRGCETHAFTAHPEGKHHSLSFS
(§4) In an enzymatic inhibitory activity detection, GST-labeled human recombinant JAK kinases, including JAK1/PV4774, JAK2/PV4210, JAK3/PV3855, TYK2/PV4790 and their corresponding specific substrates, including Tyr6 (Z′-LYTE® Kinase Assay Kit-Tyrosine 6 Peptide, JAK1/PV4122), Tyr4 (Z′-LYTE® Kinase Assay Kit-Tyrosine 4 Peptide, JAK2/PV3193), Tyr4 (Z′-LYTE® Kinase Assay Kit-Tyrosine 4 Peptide, JAK3/PV3193), Tyr3 (Z′-LYTE® Kinase Assay Kit-[…], TYK2/PV3192) are used. In all tests, development reagent A (PV3297) was used as the test agent. All materials mentioned above were purchased from Invitrogen.
(§5) (1) Preparation: kinase reaction buffer (working solution) is prepared according to the instruction; a concentration gradient of the test compound is prepared by dilution using the kinase reaction buffer (the highest compound concentration is 10 μM for JAK1, JAK2, and TYK2 detection, and 1 μM for JAK3 detection, respectively).
(§6) (2) 10 μl of reaction system, comprising 2.5 μL test compound, 5 μL kinase reaction buffer and 2.5 μL ATP solution (provided by the kit), is mixed and reaction is performed at room temperature for 1 h.
(§7) (3) Controls, including a solvent control without the test compound, a negative control without ATP and a positive control with the phosphorylated substrate, are tested together with the detection. All tests are carried out in triplicate.
(§8) (4) After the enzymatic reaction, 5 μL pre-formulated development buffer is added, and reaction is performed at room temperature for 1 h. Subsequently, the reaction is terminated by adding 5 μL stop buffer.
(§9) (5) The fluorescence signal in each well is detected by an Ascent Fluoroskan FL reader (Thermo Labsystems) at an excitation wavelength of 400 nm, and emission wavelengths of 445 nm and 520 nm. The proportion of substrate phosphorylation is obtained by reference to the fluorescence signal intensity C445/F520.
(§10) (6) The enzymatic inhibitory rate of the test compound can be calculated based on the following equation: Inhibitory rate (%)=1−the proportion of substrate phosphorylation in the detection well/the proportion of substrate phosphorylation in the solvent control well. The half-inhibitory concentration (IC50) can be calculated using an IC50 calculator based on the inhibitory rates of phosphorylation for the test compounds at different concentration gradients.
(§11) Based on the above method, the compounds described herein are enzymatically evaluated in vitro for JAKs (the concentration of the test compound is 30 nM for JAK3 and JAK2 test, and 300 nM for JAK1 test) using Xeljanz (tofacitinib citrate) as the positive control.

The target in assay [3] is JAK1 (Homo sapiens (Human), UniProt P23458). Nature of the assay: Z'-LYTE enzymatic activity detection, JAK1. It is filed as biochemical. The conditions noted are these: test compound 300 nM; for inhibition at 0.3 µM: read-out: JAK1 % inhibitory rate @300 nM. As for the experimental part: as §3, §4, §5, §6, §7, §8, §9, §10, §11
JAK1, sequence (P23458 whole entry): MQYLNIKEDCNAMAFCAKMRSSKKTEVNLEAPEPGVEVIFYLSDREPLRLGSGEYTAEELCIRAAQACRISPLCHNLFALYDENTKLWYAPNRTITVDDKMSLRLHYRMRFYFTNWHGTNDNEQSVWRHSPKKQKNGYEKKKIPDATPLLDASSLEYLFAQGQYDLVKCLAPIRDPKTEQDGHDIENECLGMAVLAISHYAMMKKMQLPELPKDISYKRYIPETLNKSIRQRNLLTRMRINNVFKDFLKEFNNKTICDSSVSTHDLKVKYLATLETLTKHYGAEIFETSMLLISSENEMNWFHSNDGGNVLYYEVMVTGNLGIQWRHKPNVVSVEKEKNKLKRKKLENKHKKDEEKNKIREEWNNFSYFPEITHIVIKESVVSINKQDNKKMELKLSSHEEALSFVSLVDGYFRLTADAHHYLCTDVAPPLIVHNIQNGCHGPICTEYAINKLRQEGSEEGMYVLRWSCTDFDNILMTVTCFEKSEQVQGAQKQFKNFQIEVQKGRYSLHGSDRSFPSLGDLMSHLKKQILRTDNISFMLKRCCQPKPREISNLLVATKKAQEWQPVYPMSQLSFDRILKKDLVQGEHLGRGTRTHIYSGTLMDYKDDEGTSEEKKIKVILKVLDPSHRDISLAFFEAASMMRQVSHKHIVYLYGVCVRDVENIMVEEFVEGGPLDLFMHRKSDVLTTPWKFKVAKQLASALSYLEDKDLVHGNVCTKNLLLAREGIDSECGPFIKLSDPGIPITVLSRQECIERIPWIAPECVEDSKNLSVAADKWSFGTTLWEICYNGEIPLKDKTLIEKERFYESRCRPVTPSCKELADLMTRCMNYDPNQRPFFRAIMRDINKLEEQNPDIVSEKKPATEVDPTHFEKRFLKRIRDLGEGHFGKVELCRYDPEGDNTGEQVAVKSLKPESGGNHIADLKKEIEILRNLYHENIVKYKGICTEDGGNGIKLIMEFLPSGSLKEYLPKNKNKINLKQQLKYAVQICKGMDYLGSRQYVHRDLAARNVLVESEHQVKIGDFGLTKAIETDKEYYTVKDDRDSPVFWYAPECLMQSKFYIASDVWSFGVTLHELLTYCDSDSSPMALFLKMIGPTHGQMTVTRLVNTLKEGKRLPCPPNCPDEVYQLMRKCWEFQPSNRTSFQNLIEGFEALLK
For assay [4], the system named is CTLL-2 cells. The experiment in a line: Cell growth activity assay (MTS), CTLL-2 cell model. In kind it is cell-based, mouse. The conditions noted are these: Mus musculus, CTLL-2, 300 nM, 24 h, read-out: CTLL-2 % growth rate @300 nM.
Excerpt: as §1
In this experiment, mouse T-cell line CTLL-2 was used. The proliferation and growth of this cell line strongly depend on IL-2, and it is commonly used to evaluate the active titer of exogenous IL-2. By inhibiting the activity of kinase JAK1/3, the proliferation of CTLL-2 can be inhibited under in vitro culture. The activation and proliferation of T-cell is also important pathological characteristics for various immunological diseases. Thus, this model is also pathologically related.
By comparing the change of absorbance generated by the cells treated by the test compounds using MTS assay, the growth inhibitory activity of the test compounds on the model cells can be realized, and thereby potential inhibitory activity of the compounds on JAK1/3 pathway can be evaluated.
as §2
The model cells are inoculated into each well of the 96-well plate at an appropriate concentration (about 20,000 cells/well). After 24 h, the test compounds are added at different concentration gradients (the highest concentration of 10 μM). A solvent control (DMSO) and a negative control are also performed at the same time. Each experiment is repeated for 3 times. The cells are detected after cultured for another 24 h.
CTLL-2 is a suspended cell. After incubation, 20 μL pre-formulated mixture of MTS and PMS (in a ratio of 20:1) is directly added to each well. After incubation at 37° C. for 2 h, it is then detected by a microplate reader (490 nm).
The effect of the test compound on cell growth is calculated by comparing the change of OD values between the test well and the solvent control well, after subtracting the background of the negative control. For the test compounds at different concentration gradients, the inhibitory rates on the growth of model cells and their half-growth inhibitory concentrations (GI50) are each calculated.
Based on the above method, cytological evaluation is performed to the compounds described herein (for the detection of CTLL-2 cell, the concentration of the test compound is 300 nM; for the detection of HeLa and HUVEC cell, the concentration of the test compound is […]).

Assay [5] concerns the target JAK2 (Homo sapiens (Human), UniProt O60674). Nature of the assay: Z'-LYTE enzymatic activity detection, JAK2. It is filed as biochemical. As to conditions: test compound 30 nM; for inhibition at 0.03 µM: read-out: JAK2 % inhibitory rate @30 nM. As for the experimental part:
as §3, §4, §5, §6, §7, §8, §9, §10, §11

JAK2, sequence (O60674 whole entry): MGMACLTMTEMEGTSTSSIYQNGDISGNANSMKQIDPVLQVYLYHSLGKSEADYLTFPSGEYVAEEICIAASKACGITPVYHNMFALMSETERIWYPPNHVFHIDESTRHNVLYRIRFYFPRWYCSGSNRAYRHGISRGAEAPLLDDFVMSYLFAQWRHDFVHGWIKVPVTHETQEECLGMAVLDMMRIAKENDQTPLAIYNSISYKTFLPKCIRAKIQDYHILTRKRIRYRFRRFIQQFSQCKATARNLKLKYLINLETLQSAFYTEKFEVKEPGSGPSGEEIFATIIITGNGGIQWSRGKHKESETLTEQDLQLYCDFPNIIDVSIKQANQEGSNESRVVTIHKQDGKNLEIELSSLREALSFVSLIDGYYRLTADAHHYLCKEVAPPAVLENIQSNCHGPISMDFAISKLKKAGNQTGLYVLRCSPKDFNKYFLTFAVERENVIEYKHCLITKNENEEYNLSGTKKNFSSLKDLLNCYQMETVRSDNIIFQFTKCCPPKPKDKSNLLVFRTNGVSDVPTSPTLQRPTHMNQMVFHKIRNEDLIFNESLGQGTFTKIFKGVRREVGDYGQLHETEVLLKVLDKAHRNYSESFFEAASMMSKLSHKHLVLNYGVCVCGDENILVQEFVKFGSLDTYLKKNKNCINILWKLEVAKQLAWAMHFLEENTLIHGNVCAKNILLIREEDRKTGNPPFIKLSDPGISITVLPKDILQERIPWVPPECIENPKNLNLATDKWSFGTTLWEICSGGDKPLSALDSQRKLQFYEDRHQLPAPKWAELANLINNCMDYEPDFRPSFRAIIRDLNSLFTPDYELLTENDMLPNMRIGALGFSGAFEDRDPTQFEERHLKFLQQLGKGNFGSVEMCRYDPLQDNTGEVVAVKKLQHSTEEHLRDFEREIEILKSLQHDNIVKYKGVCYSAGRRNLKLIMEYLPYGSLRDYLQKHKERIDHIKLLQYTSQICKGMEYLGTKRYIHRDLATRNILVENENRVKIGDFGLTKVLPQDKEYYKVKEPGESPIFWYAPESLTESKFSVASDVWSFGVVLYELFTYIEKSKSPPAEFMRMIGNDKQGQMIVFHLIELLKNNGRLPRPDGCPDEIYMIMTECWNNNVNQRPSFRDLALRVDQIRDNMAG

Consider `C=CC(=O)N(C)c1cc(Nc2ncc(C)c(NCCCNC(=O)c3ccc(C#N)cc3)n2)ccc1F` [Example 58, 4-cyano-N-(3-(2-(4-fluoro-3-(N-methylacrylamido)phenylamino)-5-methylpyrimidinyl-4-amino)propyl)benzamide], for which, in assay [1], the activity was found to be 88%. In addition, in assay [2], the “JAK3 RV (ratio between the inhibitory rate of the test compound and that of Xeljanz)” value was 0.79; the inhibition at 0.03 µM stood at 107%. In assay [3], the “JAK1 RV (ratio between the inhibitory rate of the test compound and that of Xeljanz)” value is 0.01; the inhibition at 0.3 µM amounted to 1%. Moreover, in assay [4], the activity at 0.3 µM is 54%. Further, the inhibition at 0.03 µM in assay [5] is 0%.
Turning to `C=CC(=O)N(C)c1cc(Nc2ncc(F)c(NCCCNC(=O)c3ccc(C#N)cc3)n2)ccc1F` [Example 60, 4-cyano-N-(3-(5-fluoro-2-(4-fluoro-3-(N-methylacrylamido)phenylamino)pyrimidinyl-4-amino)propyl)benzamide], the activity in assay [1] was found to be 94%. In assay [2], the “JAK3 RV (ratio between the inhibitory rate of the test compound and that of Xeljanz)” value is reported as 0.79; the inhibition at 0.03 µM came to 106%. For the same compound, in assay [3], the inhibition at 0.3 µM is 0%. Moreover, the activity at 0.3 µM in assay [4] was 79%. Further, in assay [5], the inhibition at 0.03 µM worked out at 0%.
As for `C=CC(=O)N(C)c1cc(Nc2ncc(Cl)c(NCCCNC(=O)Cc3ccc(C#N)cc3)n2)ccc1F` [Example 64, N-(5-(5-chloro-4-(3-(2-(4-cyanophenyl)acetamino)propylamino)pyrimidinyl-2-amino)-2-fluorophenyl)-N-methylacrylamide], in assay [1], the activity came out at 78%. Also, in assay [2], the “JAK3 RV (ratio between the inhibitory rate of the test compound and that of Xeljanz)” value is reported as 0.78; the inhibition at 0.03 µM was 105%. In assay [3], the “JAK1 RV (ratio between the inhibitory rate of the test compound and that of Xeljanz)” value was 0.13; the inhibition at 0.3 µM was found to be 13%. Also, the activity at 0.3 µM in assay [4] turned out to be 37%. In assay [5], the inhibition at 0.03 µM amounted to 0%.
As to `C=CC(=O)N(C)c1cc(Nc2ncc(Cl)c(NCCCNS(=O)(=O)c3ccc(C#N)cc3)n2)ccc1F` [Example 68, 4-cyano-N-(3-(5-chloro-2-(4-fluoro-3-(N-methylacrylamido)phenylamino)pyrimidinyl-4-amino)propyl)benzenesulfonamide], the activity in assay [1] was 110%. Moreover, in assay [2], the “JAK3 RV (ratio between the inhibitory rate of the test compound and that of Xeljanz)” value is 0.76; the inhibition at 0.03 µM was determined as 103%. Further, in assay [3], the “JAK1 RV (ratio between the inhibitory rate of the test compound and that of Xeljanz)” value is listed as 0.15; the inhibition at 0.3 µM was 15%. Further, the activity at 0.3 µM in assay [4] stood at 69%. Besides, the inhibition at 0.03 µM in assay [5] is 0%.
With `C=CC(=O)N(C)c1cc(Nc2ncc(Cl)c(OCCCNC(=O)c3ccc(C#N)cc3)n2)ccc1F` [Example 71, N-(3-(5-chloro-2-(4-fluoro-3-(N-methylacrylamido)phenylamino)pyrimidinyl-4-oxo)propyl)-4-cyano-benzamide], the activity in assay [1] worked out at 112%. For the same compound, in assay [2], the “JAK3 RV (ratio between the inhibitory rate of the test compound and that of Xeljanz)” value was 0.70; the inhibition at 0.03 µM is 95%. In assay [3], the “JAK1 RV (ratio between the inhibitory rate of the test compound and that of Xeljanz)” value was found to be 0.70; the inhibition at 0.3 µM was 7%. Moreover, in assay [4], the activity at 0.3 µM amounted to 70%. Also, in assay [5], the “JAK2 RV (ratio between the inhibitory rate of the test compound and that of Xeljanz)” value is reported as 0.01; the inhibition at 0.03 µM is 1%.
With `C=CC(=O)N(C)c1cc(Nc2ncc(Cl)c(NCCCNC(=O)c3ccncc3)n2)ccc1F` [Example 75, N-(3-(5-chloro-2-(4-fluoro-3-(N-methylacrylamido)phenylamino)pyrimidinyl-4-amino)propyl)isonicotinamide], the activity in assay [1] was determined as 102%. For the same compound, in assay [2], the “JAK3 RV (ratio between the inhibitory rate of the test compound and that of Xeljanz)” value amounted to 0.90; the inhibition at 0.03 µM is 121%. In assay [3], the “JAK1 RV (ratio between the inhibitory rate of the test compound and that of Xeljanz)” value is reported as 0.14; the inhibition at 0.3 µM stood at 14%. The activity at 0.3 µM in assay [4] came to 49%. In assay [5], the inhibition at 0.03 µM is 0%.
On to `C=CC(=O)N(C)c1cc(Nc2ncc(Cl)c(NCCCNC(=O)c3ccc(CC)cc3)n2)ccc1F` [Example 79, N-(3-(5-chloro-2-(4-fluoro-3-(N-methylacrylamido)phenylamino)pyrimidinyl-4-amino)propyl)-4-ethylbenzamide], for which the activity in assay [1] was determined as 78%. Further, in assay [2], the “JAK3 RV (ratio between the inhibitory rate of the test compound and that of Xeljanz)” value came to 0.96; the inhibition at 0.03 µM amounted to 80%. In assay [3], the “JAK1 RV (ratio between the inhibitory rate of the test compound and that of Xeljanz)” value is 0.22; the inhibition at 0.3 µM turned out to be 19%. Also, the activity at 0.3 µM in assay [4] is 3%. In addition, in assay [5], the inhibition at 0.03 µM came out at 0%.
